# Experimental data from the supplement of paper PMC7285287.
# Where a name gives a salt, the structure may show the parent alone. ± gives the standard deviation of the averaged measurements.
# Test system: Candida albicans SNY425 biofilm
# Experiment: biofilm OD600 relative to DMSO control (fraction of DMSO control); higher = more biofilm (less inhibition)
# Description: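 C. albicans SNY425 biofilm optical density assays (OD600 of the adhered biofilm after media removal) in RPMI-MOPS pH 7.0 at 37 °C with shaking. Groups of 4 to 8 wells per compound are averaged and normalised to the average of DMSO loading control wells. Adherence inhibition was tested at 10 and 40 µM, sustained inhibition and disruption at 40 µM, and the MBIC series at 200 to 0.78 µM.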
# [1] = 10 µM, assay detail: adherence inhibition, 96-well, compound during 90 min adherence only
# [2] = 40 µM, assay detail: adherence inhibition, 96-well, compound during 90 min adherence only
# [3] = 40 µM, assay detail: disruption, 384-well, compound added to 24 h mature biofilm for further 24 h
# [4] = 40 µM, assay detail: sustained inhibition, 384-well, compound during adherence and 24 h growth
# [5] = 0.78 µM, assay detail: sustained inhibition (MBIC series), 384-well, compound during adherence and 24 h growth
# [6] = 3.125 µM, assay detail: sustained inhibition (MBIC series), 384-well, compound during adherence and 24 h growth
# [7] = 12.5 µM, assay detail: sustained inhibition (MBIC series), 384-well, compound during adherence and 24 h growth
# [8] = 50 µM, assay detail: sustained inhibition (MBIC series), 384-well, compound during adherence and 24 h growth
# [9] = 200 µM, assay detail: sustained inhibition (MBIC series), 384-well, compound during adherence and 24 h growth
compound,measurement,setting,value
NC(=O)NC(=O)Cc1ccccc1 [phenacemide],biofilm OD600,[1],1.05
same,biofilm OD600,[2],0.929
same,biofilm OD600,[3],1.015 ± 0.0049
same,biofilm OD600,[4],1.02 ± 0.065
Cc1cnc(C(=O)O)c[n+]1[O-] [acipimox],biofilm OD600,[1],0.823
same,biofilm OD600,[2],0.56
same,biofilm OD600,[3],0.997 ± 0.034
same,biofilm OD600,[4],0.992 ± 0.029
CCCCCCCCCCCCCCCCOP(=O)([O-])OCC[N+](C)(C)C [miltefosine],biofilm OD600,[5],0.9
same,biofilm OD600,[6],0.9
same,biofilm OD600,[1],0.99
same,biofilm OD600,[7],1.08
same,biofilm OD600,[2],0.844
same,biofilm OD600,[3],1.09 ± 0.035
same,biofilm OD600,[4],0.222 ± 0.015
same,biofilm OD600,[8],0.298
same,biofilm OD600,[9],0.259
CC1OC1P(=O)(O)O (stereo unspecified) [fosphomycin],biofilm OD600,[1],0.972
same,biofilm OD600,[2],1.04
same,biofilm OD600,[3],1.01 ± 0.019
same,biofilm OD600,[4],0.982 ± 0.011
CCN(CC)C(=S)SSC(=S)N(CC)CC [disulfiram],biofilm OD600,[5],0.958
same,biofilm OD600,[6],1
same,biofilm OD600,[1],0.991
same,biofilm OD600,[7],1
same,biofilm OD600,[2],0.857
same,biofilm OD600,[3],0.999 ± 0.012
same,biofilm OD600,[4],0.76 ± 0.084
same,biofilm OD600,[8],0.764
same,biofilm OD600,[9],0.417
CCCCCCOC(=O)NC(=N)c1ccc(NCc2nc3cc(C(=O)N(CCC(=O)OCC)c4ccccn4)ccc3n2C)cc1 [dabigatran etexilate mesylate],biofilm OD600,[5],0.9
same,biofilm OD600,[6],0.9
same,biofilm OD600,[1],1.05
same,biofilm OD600,[7],0.92
same,biofilm OD600,[2],0.776
same,biofilm OD600,[3],0.971 ± 0.031
same,biofilm OD600,[4],0.894 ± 0.046
same,biofilm OD600,[8],0.843
same,biofilm OD600,[9],0.628
CNCCCC1c2ccccc2C=Cc2ccccc21 [Protriptyline hydrochloride],biofilm OD600,[1],1.05
same,biofilm OD600,[2],0.899
same,biofilm OD600,[3],1.01 ± 0.012
same,biofilm OD600,[4],1.02 ± 0.022
Cc1ccc(-c2nc3ccc(C)cn3c2CC(=O)N(C)C)cc1 [zolpidem],biofilm OD600,[1],0.924
same,biofilm OD600,[2],0.858
same,biofilm OD600,[3],1.005 ± 0.0066
same,biofilm OD600,[4],0.981 ± 0.055
Cc1cc2c(s1)Nc1ccccc1N=C2N1CCN(C)CC1 [olanzapine],biofilm OD600,[1],0.943
same,biofilm OD600,[2],0.921
same,biofilm OD600,[3],0.999 ± 0.027
same,biofilm OD600,[4],0.974 ± 0.04
Nc1ccc(S(=O)(=O)Nc2ccnn2-c2ccccc2)cc1 [Sulfaphenazole],biofilm OD600,[1],0.962
same,biofilm OD600,[2],0.934
same,biofilm OD600,[3],1.01 ± 0.017
same,biofilm OD600,[4],1.01 ± 0.03
N[C@@H](Cc1cc(I)c(Oc2ccc(O)c(I)c2)c(I)c1)C(=O)O [liothyronine sodium],biofilm OD600,[1],1.14
same,biofilm OD600,[2],1.15
same,biofilm OD600,[3],0.989 ± 0.05
same,biofilm OD600,[4],0.96 ± 0.021
CC(C)N1CCN(c2ccc(OCC3COC(Cn4cncn4)(c4ccc(Cl)cc4Cl)O3)cc2)CC1 (stereo unspecified) [terconazole],biofilm OD600,[5],0.77
same,biofilm OD600,[6],0.76
same,biofilm OD600,[1],0.387
same,biofilm OD600,[7],0.728
same,biofilm OD600,[2],0.269
same,biofilm OD600,[3],0.9787 ± 0.008
same,biofilm OD600,[4],0.55 ± 0.032
same,biofilm OD600,[8],0.568
same,biofilm OD600,[9],0.403
O=C1CN(/N=C/c2ccc([N+](=O)[O-])o2)C(=O)N1 [nitrofurantoin],biofilm OD600,[1],1.08
same,biofilm OD600,[2],1.04
same,biofilm OD600,[3],0.999 ± 0.035
same,biofilm OD600,[4],0.999 ± 0.011
COC(=O)C1=C(C)NC(C)=C(C(=O)OCC(C)C)C1c1ccccc1[N+](=O)[O-] (stereo unspecified) [nisoldipine],biofilm OD600,[5],0.962
same,biofilm OD600,[6],1.01
same,biofilm OD600,[1],0.914
same,biofilm OD600,[7],0.989
same,biofilm OD600,[2],0.888
same,biofilm OD600,[3],1.01 ± 0.051
same,biofilm OD600,[4],0.65 ± 0.077
same,biofilm OD600,[8],0.549
same,biofilm OD600,[9],0.397
Cn1c(=O)c2c(ncn2CC(O)CO)n(C)c1=O (stereo unspecified) [dyphylline],biofilm OD600,[1],0.909
same,biofilm OD600,[2],0.872
same,biofilm OD600,[3],1.02 ± 0.046
same,biofilm OD600,[4],1.02 ± 0.047
CC(C)[C@H](N)C(=O)OCCOCn1cnc2c(=O)nc(N)[nH]c21 [valacyclovir hydrochloride],biofilm OD600,[1],1.1
same,biofilm OD600,[2],0.844
same,biofilm OD600,[3],1 ± 0.024
same,biofilm OD600,[4],0.982 ± 0.047
C[C@@H]1CC[C@H]2[C@@H](C)C(=O)O[C@@H]3O[C@@]4(C)CC[C@@H]1[C@]32OO4 [artemisinin],biofilm OD600,[5],1.09
same,biofilm OD600,[6],1.06
same,biofilm OD600,[1],1.14
same,biofilm OD600,[7],1.01
same,biofilm OD600,[2],0.966
same,biofilm OD600,[3],0.955 ± 0.017
same,biofilm OD600,[4],0.838 ± 0.019
same,biofilm OD600,[8],0.893
same,biofilm OD600,[9],0.744
CCOC(=O)[C@H](CCc1ccccc1)N[C@@H](C)C(=O)N1Cc2ccccc2C[C@H]1C(=O)O [quinapril hydrochloride],biofilm OD600,[1],1.07
same,biofilm OD600,[2],0.946
same,biofilm OD600,[3],1 ± 0.022
same,biofilm OD600,[4],1.01 ± 0.033
CN1CCC[C@@H]1Cc1c[nH]c2ccc(CCS(=O)(=O)c3ccccc3)cc12 [eletriptan hydrobromide],biofilm OD600,[1],0.99
same,biofilm OD600,[2],0.945
same,biofilm OD600,[3],1.014 ± 0.0095
same,biofilm OD600,[4],1 ± 0.026
CCC(=O)Oc1ccc2c(c1)CC[C@@H]1[C@@H]2CC[C@]2(C)[C@@H](OC(=O)CC)CC[C@@H]12 [estradiol dipropionate],biofilm OD600,[1],0.958
same,biofilm OD600,[2],0.844
same,biofilm OD600,[3],0.954 ± 0.037
same,biofilm OD600,[4],0.987 ± 0.012
N[C@H](Cc1ccccc1)C(=O)O [d-phenylalanine],biofilm OD600,[1],1
same,biofilm OD600,[2],1.01
same,biofilm OD600,[3],0.973 ± 0.034
same,biofilm OD600,[4],0.994 ± 0.06
COCCCOc1ccnc(C[S+]([O-])c2nc3ccccc3[nH]2)c1C (stereo unspecified) [rabeprazole sodium],biofilm OD600,[5],0.998
same,biofilm OD600,[6],1.1
same,biofilm OD600,[1],1.06
same,biofilm OD600,[7],1.08
same,biofilm OD600,[2],0.914
same,biofilm OD600,[3],0.936 ± 0.049
same,biofilm OD600,[4],1 ± 0.022
same,biofilm OD600,[8],1.01
same,biofilm OD600,[9],0.747
Cc1c(NC(=O)c2cccnc2)c(=O)n(-c2ccccc2)n1C [nifenazone],biofilm OD600,[1],0.927
same,biofilm OD600,[2],0.919
same,biofilm OD600,[3],1.004 ± 0.0086
same,biofilm OD600,[4],0.968 ± 0.065
C=CC1=C(C)c2cc3[nH]c(cc4nc(cc5[nH]c(cc1n2)c(C)c5CCC(=O)O)C(CCC(=O)O)=C4C)c(C)c3C=C [protoporphyrin ix],biofilm OD600,[1],1.04
same,biofilm OD600,[2],0.941
same,biofilm OD600,[3],1.21 ± 0.082
same,biofilm OD600,[4],1.65 ± 0.22
N[C@@H](C(=O)N[C@@H]1C(=O)N2C(C(=O)O)=C(Cl)CS[C@H]12)c1ccccc1 [cefaclor],biofilm OD600,[1],1.07
same,biofilm OD600,[2],0.896
same,biofilm OD600,[3],1.03 ± 0.028
same,biofilm OD600,[4],0.983 ± 0.032
CN(C)CCC(c1ccc(Cl)cc1)c1ccccn1 (stereo unspecified) [chlorpheniramine maleate],biofilm OD600,[1],1.02
same,biofilm OD600,[2],0.894
same,biofilm OD600,[3],1 ± 0.044
same,biofilm OD600,[4],1.01 ± 0.026
Cc1cccc(Nc2ccccc2C(=O)O)c1C [mefenamic acid],biofilm OD600,[5],1.02
same,biofilm OD600,[6],1.01
same,biofilm OD600,[1],0.973
same,biofilm OD600,[7],0.958
same,biofilm OD600,[2],0.93
same,biofilm OD600,[3],0.875 ± 0.038
same,biofilm OD600,[4],0.905 ± 0.011
same,biofilm OD600,[8],0.875
same,biofilm OD600,[9],0.714
Oc1c(Cl)cc(Cl)c2cccnc12 [chloroxine],biofilm OD600,[5],1.03
same,biofilm OD600,[6],1.03
same,biofilm OD600,[1],0.788
same,biofilm OD600,[7],0.926
same,biofilm OD600,[2],0.373
same,biofilm OD600,[3],0.907 ± 0.031
same,biofilm OD600,[4],0.28 ± 0.019
same,biofilm OD600,[8],0.333
same,biofilm OD600,[9],0.268
CCN(CC)C(=O)C1(c2ccccc2)CC1CN (stereo unspecified) [milnacipran hydrochloride],biofilm OD600,[1],0.934
same,biofilm OD600,[2],0.943
same,biofilm OD600,[3],0.977 ± 0.026
same,biofilm OD600,[4],0.962 ± 0.018
C[C@]12C=CC(=O)C=C1CC[C@H]1[C@@H]3C[C@@H](O)[C@](O)(C(=O)CO)[C@@]3(C)C[C@H](O)[C@@]12F [triamcinolone],biofilm OD600,[1],1
same,biofilm OD600,[2],0.879
same,biofilm OD600,[3],1.03 ± 0.034
same,biofilm OD600,[4],1 ± 0.014
Cc1c(OCC(F)(F)F)ccnc1C[S@@+]([O-])c1nc2ccccc2[nH]1 [dexlansoprazole],biofilm OD600,[5],0.981
same,biofilm OD600,[6],0.887
same,biofilm OD600,[1],0.925
same,biofilm OD600,[7],0.833
same,biofilm OD600,[2],0.837
same,biofilm OD600,[3],1.01 ± 0.024
same,biofilm OD600,[4],0.7 ± 0.091
same,biofilm OD600,[8],0.643
same,biofilm OD600,[9],0.625
COCCOC(=O)C1=C(C)NC(C)=C(C(=O)OC(C)C)C1c1cccc([N+](=O)[O-])c1 (stereo unspecified) [nimodipine],biofilm OD600,[5],1.07
same,biofilm OD600,[6],1.06
same,biofilm OD600,[1],0.942
same,biofilm OD600,[7],1.01
same,biofilm OD600,[2],0.821
same,biofilm OD600,[3],0.91 ± 0.029
same,biofilm OD600,[4],0.984 ± 0.043
same,biofilm OD600,[8],0.987
same,biofilm OD600,[9],1.27
CC[C@H]1OC(=O)[C@H](C)[C@@H](O[C@H]2C[C@@](C)(OC)[C@@H](O)[C@H](C)O2)[C@H](C)[C@@H](O[C@@H]2O[C@H](C)C[C@H](N(C)C)[C@H]2O)[C@](C)(O)C[C@@H](C)C(=O)[C@H](C)[C@@H](O)[C@]1(C)O [erythromycin],biofilm OD600,[1],0.879
same,biofilm OD600,[2],0.874
same,biofilm OD600,[3],1.03 ± 0.026
same,biofilm OD600,[4],1.03 ± 0.017
COc1ccc(-c2cc(=O)c3c(O)cc(O[C@@H]4O[C@H](CO[C@@H]5O[C@@H](C)[C@H](O)[C@@H](O)[C@H]5O)[C@@H](O)[C@H](O)[C@H]4O)cc3o2)cc1O [diosmin],biofilm OD600,[1],1
same,biofilm OD600,[2],0.962
same,biofilm OD600,[3],1.09 ± 0.14
same,biofilm OD600,[4],1.07 ± 0.059
